Data published in patent publication US20200171063A1, “Use Of Cholesterol For Promoting Survival And Proliferation Of Primary Medulloblastoma Cells” (Institute For Cancer Research d/b/a The Research Institute …, priority 2017, published 2020).

Assays:
[1] = system: MB cells isolated from Ptch1+/− mice; test: Ki67 immunocytochemistry of cultured primary MB cells; type: cell-based, mouse
Procedure: MB cells isolated from Ptch1^+/− mice were cultured with NB-B27 culture medium (lacking cholesterol) in the presence of simvastatin or triparanol at designated concentrations.
Cell culture: Primary mouse medulloblastoma cells were isolated from full-blown mouse-derived tumor as described before (Yang et al., 2008, Cancer Cell, 14, 135-145). Obtained cells were cultured on glass coverslips coated with 0.1 mg/ml poly-D-lysine (Millipore, A-003-E). Cells were pulsed with 10 μM of BrdU (Millipore, 19-160) for 2 hours prior to the material collection time point. […]
Histology and immunohistochemistry: Cultured primary MB cells were fixed with 4% PFA on PBS for 15 minutes, permeabilized, and blocked in 10% normal goat serum on PBST (PBS, 0.1% Triton-X100) for 1 hour at room temperature and stained against Ki67 (Abcam, ab15580, 1:1000), NeuN (Abcam, ab104224, 1:200), Caspase 3 (Cell Signaling, 9662, 1:500), BrdU (Sigma-Aldrich, B-8434, 1:500), mCherry (Abcam, ab167453, 1:500), Zic1 (Generous gift from Dr. Sigal, Dana Farber Research Institute, 1:200), S1000 (Sigma-Aldrich, 1:500), YFP (Life Technologies, 1:500).
Prior to BrdU immunostaining, cells were incubated in pH 5.0 buffer for 30 minutes at 37 C. Secondary antibodies were applied at dilution 1:500 on 10% normal goat serum on PBST for 2 hours at room temperature. Samples were counterstained with DAPI and mounted with Fluoromount-G.
MB cells were isolated from Ptc^+/− mouse and cultured in presence of simvastatin (see, FIG. 2A, panels B-D) or triparanol (see, FIG. 2A, panel E), and water-soluble cholesterol (see, FIG. 2A, panels F-J). After 48 hours in vitro, culture cells were fixed, stained against Ki67 (red), and counterstained with DAPI. […] Significance asterisk key: p value <0.05 (*), p<0.01 (**), p<0.001 (***), p<0.0001 (****).

[2] = system: Hh signaling (Gli1 expression) in MB cells isolated from Ptch1+/− mice; test: Western blot of Gli1 protein expression in Ptc+/− MB cells; type: cell-based, mouse
Excerpt: Western blotting: Cells and tissues were lysed in RIPA buffer (Thermo) supplemented with protease (Roche) and phosphatase (Thermo) inhibitors cocktail. Total protein lysates were separated in 8% SDS-PAGE and transferred on PVDF membrane. Membranes were probed with antibodies against Gli1 (Cell Signaling, 1:1000) and GAPDH (Sigma-Aldrich, 1:1000). Western Blot signals were detected with SuperSignal West Pico Substrate and exposed on films. […] Having observed that MB cell proliferation was compromised after cholesterol deficiency, it was postulated that cholesterol may promote Hh pathway activation. Western blotting: Cells and tissues were lysed in RIPA buffer (Thermo) supplemented with protease (Roche) and phosphatase (Thermo) inhibitors cocktail. Total protein lysates were separated in 8% SDS-PAGE and transferred on PVDF membrane. Membranes were probed with antibodies against GLI1 (Cell Signaling, 1:1000), NSDHL (Proteintech, 1:1000), Ptch1 (Novus Biologicals, 1:1000), GAPDH (Sigma-Aldrich, 1:1000). Western Blot signals were detected with SuperSignal West Pico Substrate and exposed on films. MB cells isolated from Ptch1^+/− mice were treated with Simvastatin with and without addition of WSC. At 48 hours after the treatment, cells were harvested to measure Hh signaling through examining Gli1 expression by Western blotting. […]

[3] = system: Hh signaling (Gli1 protein expression) in NIH3T3 cells; test: Western blot of Gli1 protein in NIH3T3 cells upon Hh treatment; type: cell-based
Excerpt: (§1) Having observed that MB cell proliferation was compromised after cholesterol deficiency, it was postulated that cholesterol may promote Hh pathway activation. Western blotting: Cells and tissues were lysed in RIPA buffer (Thermo) supplemented with protease (Roche) and phosphatase (Thermo) inhibitors cocktail. Total protein lysates were separated in 8% SDS-PAGE and transferred on PVDF membrane. Membranes were probed with antibodies against GLI1 (Cell Signaling, 1:1000), NSDHL (Proteintech, 1:1000), Ptch1 (Novus Biologicals, 1:1000), GAPDH (Sigma-Aldrich, 1:1000). Western Blot signals were detected with SuperSignal West Pico Substrate and exposed on films.
MB cells isolated from Ptch1^+/− mice were treated with Simvastatin with and without addition of WSC. At 48 hours after the treatment, cells were harvested to measure Hh signaling through examining Gli1 expression by Western blotting. To further examine the requirement of cholesterol in Hh signal transduction, NIH3T3 cells that have all components involved in Hh signaling were utilized.
FIG. 4 (panels C and D) show Western blot analysis of GLI1 protein expression in Ptcfl/fl (see, FIG. 4, panel C) and SmoM2 MEFs (see, FIG. 4, panel D) following CreYFP carrying lentivirus infection and subsequent simvastatin, triparanol and water soluble cholesterol treatment for 48 hours in vitro. […] GAPDH was used as a loading control. […]

[4] = system: Hh signaling (Gli1 expression) in Ptch1-deficient MEFs; test: Western blot of Gli1 protein in Ptch1-deficient MEFs (Ptch1fl/fl + Cre lentivirus); type: cell-based, mouse
Excerpt: as §1
(§2) Primary mouse embryonic fibroblasts (MEFs) from Ptch1fl/fl mice carrying a proportion of Ptch1 gene flanked by loxp sites (Ellis et al., Genesis, 2003, 36, 158-161), or SmoM2 mice expressing a constitutively activated form of Smo upon Cre recombination (Jeong et al., Genes & Develop., 2004, 18, 937-951) were generated. MEFs were then infected with a lentivirus carrying Cre recombinase to activate Hh signaling, or with an empty vector as a control. At 48 hours after the infection, MEFs were harvested to examine Gli1 protein expression by Western blotting. […]

[5] = system: Hh signaling (Ptch1 protein expression) in Gli1-overexpressed NIH3T3 cells; test: Western blot of Ptch1 protein in Gli1-overexpressed NIH3T3 cells; type: cell-based; conditions: 48 hours
Excerpt: as §1
FIG. 4 (panels C and D) show Western blot analysis of GLI1 protein expression in Ptcfl/fl (see, FIG. 4, panel C) and SmoM2 MEFs (see, FIG. 4, panel D) following CreYFP carrying lentivirus infection and subsequent simvastatin, triparanol and water soluble cholesterol treatment for 48 hours in vitro. […] GAPDH was used as a loading control. […] In the absence of Hh ligand, its receptor Ptch1, tethers pathway effector Smo. Bound to Ptch1, Hh releases Smo, causes activation of Gli1 transcription factor, and leads to transcription of Hh pathway genes (Gli1, Ptch1, etc.). Cholesterol promotes Smo activation during Hh signal transduction. […]

[6] = system: Hh signaling (Gli1 protein expression) in Smo-activated MEFs; test: Western blot of Gli1 protein in Smo-activated (SmoM2) MEFs; type: cell-based, mouse; conditions: 48 hours
Excerpt: as §1, §2

MB cells = test: MTT viability assay of MB cells; type: cell-based, mouse; conditions: after treatment with simvastatin or triparanol
[7] = system: Ptc+/− MB subcutaneous allograft; test: Ptc+/− MB subcutaneous allograft in CB17/SCID mice; type: in vivo, mouse; conditions: vismodegib 5 mg/kg/day, per os

## CC(C)CCC[C@@H](C)[C@H]1CC[C@H]2[C@@H]3CC=C4C[C@@H](O)CC[C@]4(C)[C@H]3CC[C@]12C [WSC, cholesterol]
[1]; 15 μM WSC, 0 to 96 hours time course
  tumor cell proliferation over time (Ki67 immunocytochemistry): prolonged tumor cell proliferation
[1]; addition of cholesterol after simvastatin or triparanol treatment, 48 hours
  rescue of repressed MB cell proliferation (Ki67): significantly rescued
[1]; exogenous cholesterol, control culture without inhibitor
  MB cell proliferation in control culture (Ki67): enhanced MB cell proliferation
[2]; 15 μM WSC, in vitro for 96 hours
  Gli1 expression levels (western blotting): rescued Gli1 expression levels
[2]; addition of exogenous cholesterol, 48 hours
  Gli1 expression in Simvastatin treated MB cells: rescued Gli1 expression
[3]; NIH3T3 cells, exogenous cholesterol added
  Gli1 protein expression after Simvastatin or Triparanol treatment: upregulated
[4]; addition of exogenous cholesterol
  restoration of Gli1 expression inhibited by simvastatin or triparanol: restored

## CCN(CC)CCOc1ccc(C(O)(Cc2ccc(Cl)cc2)c2ccc(C)cc2)cc1 (centres unmarked) [triparanol]
[5]
  upregulation of Ptch1 protein expression: not altered
[1]; 48 hours in culture, NB-B27 medium lacking cholesterol, vs DMSO control
  percentage of proliferating MB cells (Ki67+): Reduced proliferation
[6]
  up-regulation of Gli1 protein expression: not altered
MB cells
  proliferation of MB cells by MTT viability assay: Repressed proliferation
[3]; NIH3T3 cells upon Hh treatment, 48 hours
  Gli1 protein expression: significantly repressed
[4]; 48 hours
  Gli1 expression: dramatically inhibited

## CS(=O)(=O)c1ccc(C(=O)Nc2ccc(Cl)c(-c3ccccn3)c2)c(Cl)c1 [vismodegib (GDC0449), vismodegib]
[7]
  MB growth: prohibited MB growth
